Data published in US20130171161A1, “METHOD AND COMPOSITION FOR THE TREATMENT OF DISEASES CAUSED BY OR ASSOCIATED WITH HIV” (priority 2010, published 2013).
Like-named read-outs stand apart in the source and are kept apart here.

Assays:
HIV-1 LAI [1] = assay: Inhibition of HIV replication (p24 level) in human peripheral blood mononuclear cells infected in vitro, Example 1; type: cell-based; settings: Human immunodeficiency virus 1, PBMC; 1000 nM added 24 hours before infection; day 7; read-out: inhibition of HIV replication (p24 in supernatant)
Method: The assessment of antiretroviral activity of ultra low-dose of rabbit polyclonal antibodies to CD4 receptor (a mixture of homoeopathic dilutions C12+C30+C50) (ULD Ab CD4)), was carried out using human peripheral blood mononuclear cells infected with the strain HIV-1 LAI in vitro.
Human peripheral blood mononuclear cells were isolated from blood of a seronegative healthy donor by centrifugation on a Ficoll-Hypaque density gradient. The cells were stimulated for 3 days with 1 μg/mL of phytohemagglutinin P and 5 IU/mL of recombinant human interleukin-2.
In order to assess antiretroviral activity the products were placed in a well containing 100 μL of activated mononuclears 24 hours before or 15 min after cell infection with the strain HIV-1-LAI at the dose of 100 TCID50 (50 μL inoculum of the strain HIV-1-LAI). Before adding to a well, ULD Ab CD4 (12.5 μL) or reference azidotimidine (1000 nM) were mixed with RPMI1640 medium (DIFCO) to achieve a final probe volume of 50 μL
The supernatant fluids were collected on day 7 after infection of cells. The products' activity was measured by the inhibition of HIV replication which was assessed by the level of core nucleocapsid protein p24 in the supernatant fluid from human peripheral blood mononuclear cells using Retrotek Elisa kit.

HIV-1 LAI [2] = assay: Inhibition of HIV-reverse transcriptase activity in supernatant of infected human peripheral blood mononuclear cells, Example 2; type: cell-based; settings: 8 nM; added 15-30 minutes after infection
Method: The assessment of antiretroviral activity of ultra low-dose rabbit polyclonal antibodies to CD4 (a mixture of homoeopathic dilutions C12+C30+C50) (hereinafter referred to as “ultra low-dose antibodies to CD4) was carried out using human peripheral blood mononuclear cells infected with the strain HIV-1 LAI in vitro. Azidothymidine (Sigma—AZ169-100 mg, lot 107K1578) was used as a comparator product.
Human peripheral blood mononuclear cells were isolated from blood of a seronegative healthy donor by centrifugation on a Ficoll-Hypaque density gradient. The cells were stimulated for 3 days with 1 μg/mL of phytohemagglutinin P and 5 IU/mL of recombinant human interleukin-2 in RPMI1640 (DIFCO) medium supplemented with 10% fetal calf serum (the complement was removed by heating for 45 minutes at 56° C.), 1% antibiotic solution (PSN Gibco containing 50 μg/mL of penicillin, 50 μg/mL of streptomycin and 100 μg/mL of neomycin). […]
The products' efficiency was established by the inhibition of HIV replication which was assessed by HIV-reverse transcriptase activity in the supernatant fluid from human peripheral blood mononuclear cells using the HIV RT RetroSys kit made by INNOVAGEN (Lot 10-059C). […]

HIV-strain-1-LAI = assay: Inhibition of HIV replication (p24 content) in infected mononuclear cells of human blood, Example 3; type: cell-based, HIV-1; settings: 1000 nM, day 7, read-out: inhibition of HIV reaction (p24 in supernatant)
Excerpt: The experimental study involved the affine purified rabbit polyclonal antibodies to the human IFN-gamma. The affine purified rabbit polyclonal antibodies to the human gamma interferon were used for development of the (potentiated) antibodies to the gamma interferon in a very-low-dose in the form of serial dilutions C12+C30+C50, obtained in accordance with a homeopathic technology (hereinafter referred to as Ab to IFN-γ in VLD).
Antiviral activity of the composition under review Ab to IFN-γ in VLD and azidothymidine (preparation, based on an active substance of Zidovudine) was studied within the context of mononuclear cells of the human blood, infected in vitro with the HIV-strain-1-LAI. The efficiency of replicating inhibition of HIV was assessed according to the content of a main nucleocapsid protein p24 HIV in the supernatant fluid of the mononuclear cells of the human peripheral blood. […]
Supernatant fluid of the cell culture was collected on the seventh (7) day subsequent to the contamination. The efficiency of the preparations was assessed according to the inhibition of HIV reaction, in its turn assessed in accordance with the content of a main nucleocapsid protein p24 HIV in the supernatant cells by method of IFA, immunofluorescent assay (Retrotek Elisa kit).

In the case of `Cc1cn([C@H]2C[C@H](N=[N+]=[N-])[C@@H](CO)O2)c(=O)[nH]c1=O` [Azidothymidine], the inhibition at 1 µM (HIV-1 LAI [1]) is reported as 99%, the “Inhibition of HIV-reverse transcriptase activity (% of control) Day 7” value (HIV-1 LAI [2]) is reported as 58 ± 7 % of control and the inhibition at 1 µM (HIV-strain-1-LAI; Human immunodeficiency virus 1, 168 h, introduced 24 prior to contamination) is reported as 99%. It also gave an inhibition at 1 µM (HIV-strain-1-LAI; Human immunodeficiency virus 1, introduced 15 minutes after contamination) of 99 ± 1%.
